According to patent publication US20210196737A1, “USE OF TREZASTILBENOSIDE IN MANUFACTURE OF PRODUCT FOR TREATING AND/OR PREVENTING NON-ALCOHOLIC FATTY LIVER DISEASE” (KPC PHARMACEUTICALS, INC., priority 2019, published 2021):

Experiments:
[1] = test system: non-alcoholic fatty liver disease (NAFLD) model mice; assay: Body weight, wet liver weight and liver index in high-sugar high-fat diet NAFLD model mice; assay type: in vivo, C57BL/6 mice; conditions: for Weight: high-sugar high-fat feed; for Weight / Wet liver weight: mean ± s, n=10
Source text: (§1) After 1 week of adaptive feeding, 44 C57 mice were divided into a control group (12 mice) and a model group (32 mice) according to the random number method. The normal control group was given ordinary diet, and the model group was given high-sugar and high-fat diet. After feeding for 8 weeks, randomly select 2 animals in each of the control group and the model group. After pathological examination confirmed that the modeling was successful, the model animals were divided into groups.
(§2) The model animals were divided according to random number method into 3 groups of 10 mice each, namely model control group (equal volume of sodium chloride injection solution), Trezastilbenoside high dose group (20 mg/kg) and Trezastilbenoside low dose group (10 mg/kg). The mice in each administration group were administered intragastrically with the corresponding drug, once a day continuously for 4 weeks, while being fed with the high-sugar and high-fat feed continuously. The mice in the normal control group (equal volume of sodium chloride injection solution) were feed with the ordinary feed.
After the last administration, the mice were fasted but had access to water for 12 h, and then sacrificed after blood was taken. The body mass and liver mass of each mouse were weighed to calculate the liver index by the following formula.
liver index=(liver wet mass/body mass)×100% (wet liver mass/body mass).

[2] = test system: non-alcoholic fatty liver disease (NAFLD) model mice; assay: Levels of serum TC, TG, HDL, LDL, AST and ALT in NAFLD model mice; assay type: in vivo, C57BL/6 mice; conditions: x ± s, n=10
Source text: as §1, §2
About 1 mL of blood, taken via mouse eyeballs, was placed into a 1.5 mL centrifuge tube, and then centrifuged at 3000 r/min for 10 min to obtain the supernatant. The levels of TC, TG, HDL, LDL, AST and ALT in the serum were measured with a microplate reader strictly under the operating instructions of the assay kit.

[3] = test system: non-alcoholic fatty liver disease (NAFLD) model mice; assay: TC and TG content in liver tissue of NAFLD model mice; assay type: in vivo, C57BL/6 mice
Source text: as §1, §2
About 100 mg of liver tissue weighed, was put into 900 μL absolute ethanol to make a 10% tissue homogenate under an ice bath. Then the supernatant was separated out through a centrifugation separation at 3000 r/min for 15 min, and collected into a 1.5 mL centrifuge tube for the measurement of TC and TG content in the liver tissue.

[4] = test system: non-alcoholic fatty liver disease (NAFLD) model mice; assay: Gross observation and HE staining of liver of NAFLD model mice; assay type: in vivo, C57BL/6 mice
Source text: as §1, §2
The fresh liver tissue was immersed and fixed in 4% formaldehyde solution overnight for 24 h, dehydrated through 75%-95%-100% ethanol gradient, embedded in paraffin, sectioned into 4 μm, and conventionally stained with hematoxylin-eosin, to observe the pathological changes of the liver tissue under an optical microscope (HE, 200×).

[5] = safety research mentioned in background; cited from earlier work
[6] = safety research mentioned in background; cited from earlier work; remark: listed apart in the source
[7] = high dose 20 mg/kg intragastric once a day for 4 weeks
[8] = low dose 10 mg/kg intragastric once a day for 4 weeks
[9] = high dose 20 mg/kg intragastric 4 weeks
[10] = low dose 10 mg/kg intragastric 4 weeks
[11] = HE, 200x, Trezastilbenoside group

For `OC[C@H]1O[C@@H](Oc2cc(/C=C/c3cc(O)cc(O)c3)ccc2O)[C@H](O)[C@@H](O)[C@@H]1O` [Trezastilbenoside], the “Obesity induced by high sugar and high fat, compared with the model group” value ([1]; Trezastilbenoside administration group, 4 weeks intragastric) was “has a tendency to reduce the obesity induced by high sugar and high fat in mice”, the “Weight” value [1, 7] was 33.8 ± 0.74 g and the “Liver index (%)” value ([1]; high dose 20 mg/kg intragastric once a day for 4 weeks, liver wet mass/body mass x 100%) was 0.51 ± 0.05 %. The “Wet liver weight” value [1, 7] was 1.72 ± 2.7 g, the “Weight” value [1, 8] was 35.0 ± 0.62 g and the “Wet liver weight” value [1, 8] was 1.84 ± 3.0 g. The “ALT (U/L)” value [2, 9] was 78.30 ± 11.53 U/L, the “AST (U/L)” value [2, 9] was 118.92 ± 10.75 U/L and the “HDL” value [2, 9] was 0.45 ± 0.16 mmol/L. The “LDL” value [2, 9] was 0.41 ± 0.30 mmol/L, the “TC” value [2, 9] was 3.43 ± 0.17 mmol/L and the “TG” value [2, 9] was 0.99 ± 0.11 mmol/L. The “ALT (U/L)” value [2, 10] was 122.45 ± 27.37 U/L, the “AST (U/L)” value [2, 10] was 147.73 ± 52.98 U/L and the “HDL” value [2, 10] was 0.27 ± 0.67 mmol/L. The “LDL” value [2, 10] was 0.47 ± 0.13 mmol/L, the “TC” value [2, 10] was 5.53 ± 0.52 mmol/L and the “TG” value [2, 10] was 2.67 ± 0.19 mmol/L. The “TC” value [3, 9] was 4.23 ± 0.87 mg/g, the “TG” value [3, 9] was 1.96 ± 0.99 mg/g and the “TC” value [3, 10] was 6.53 ± 0.59 mg/g. The “TG” value [3, 10] was 2.12 ± 0.58 mg/g, the “HE observation of mouse liver: fat droplets and pathological morphology, compared with the model group” value [4, 11] was “smaller and fewer, the pathological morphology of liver tissue was significantly improved” and the “HE observation of mouse liver: infiltration of inflammatory cells” value [4, 11] was “the infiltration of inflammatory cells was not obvious”. For the same compound, the “Gross observation of mouse liver: colour, texture and shape” value ([4]; low and high dose groups (10 and 20 mg/kg)) was “between the normal control group and the model group, and the texture and shape tended to be normal”, the “Toxic side reactions and death in acute toxicity tests” value [5] was “no toxic side reactions and death occurred” and the “Chromosome aberrations or mutagenesis in the genetic test” value [6] was “no chromosome aberrations or mutagenesis were found”.
